In US20250368628A1, “METHODS AND COMPOUNDS FOR MODULATING INHERITED GENETIC DISEASES” (Design Therapeutics, Inc., priority 2022, published 2025):

System: Myotonic Dystrophy 1 affected patient fibroblasts (Coriel GM04602; 1600 CTG repeats)
Experiment: DM1 foci reduction assay (EC50 assay; CAG10-Cy3 FISH, foci per nucleus)
Type: cell-based
Conditions: Homo sapiens, Fibroblast; DM1 patient fibroblasts, 48 h treatment, foci per nucleus; read-out: DM1 EC50, 48 h
Summary of the method: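 Foci per nucleus counted by 20× imaging of 4 areas per well, after overnight FISH with 5 nM CAG10-Cy3 and DAPI staining of fixed, permeabilized cells. DM1 fibroblasts (GM04602, 1600 CTG) were dosed 48 h at 37 °C, 8 points, 3-fold dilutions, 3 μM top concentration.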

Compound	EC50
COCCOCCOCCOCCN(CCOCCOCCOCCOC)C(=O)CCCCn1cc(NC(=O)c2nc(NC(=O)CCNC(=O)c3cc(NC(=O)c4nccn4C)cn3C)cn2C)cc1C(=O)NCCCC(=O)Nc1cn(C)c(C(=O)NCCC(=O)Nc2cc(C(=O)Nc3cn(C)c(C(=O)NCCC(=O)N4CCC(N5CCN(C(=O)OC(C)(C)C)CC5)CC4)n3)n(C)c2)n1 [Compound B-242]	> 1000 nM
COCCOCCOCCOCCN(CCOCCOCCOCCOC)C(=O)CCCCn1cc(NC(=O)c2nc(NC(=O)CCNC(=O)c3cc(NC(=O)c4nccn4C)cn3C)cn2C)cc1C(=O)NCCCC(=O)Nc1cn(C)c(C(=O)NCCC(=O)Nc2cc(C(=O)Nc3cn(C)c(C(=O)NCCC(=O)N4CCC(C#CC#CC5CCN(C(C)=O)CC5)CC4)n3)n(C)c2)n1 [Compound B-259]	> 1000 nM
Cn1cc(NC(=O)c2nc(NC(=O)CCNC(=O)c3cc(NC(=O)c4nccn4C)cn3C)cn2C)cc1C(=O)NCCCC(=O)Nc1cn(C)c(C(=O)NCCC(=O)Nc2cc(C(=O)Nc3cn(C)c(C(=O)NCCC(=O)NCCNc4ccc(C(C)(C)C)cc4)n3)n(C)c2)n1 [Compound B-181]	> 1000 nM
Cn1cc(NC(=O)c2nc(NC(=O)c3cc(NC(=O)CCNC(=O)c4nccn4C)cn3C)cn2C)cc1C(=O)NCCCC(=O)Nc1cn(C)c(C(=O)NCCC(=O)Nc2cc(C(=O)Nc3cn(C)c(C(=O)NCCC(=O)NCCCCN=[N+]=[N-])n3)n(C)c2)n1 [Compound B-84]	> 1000 nM
CCN(CC)CCCC[C@H](NC(=O)c1cccc(C(=O)O)c1)C(=O)NCCOCCOCCOCCNC(=O)c1nc(NC(=O)c2cc(NC(=O)CCNC(=O)c3nc(NC(=O)CCCNC(=O)c4cc(NC(=O)c5nc(NC(=O)CCNC(=O)c6cc(NC(=O)c7nccn7C)cn6C)cn5C)cn4C)cn3C)cn2C)cn1C [Compound B-221]	> 1000 nM
CCCNC(=O)CCNC(=O)c1nc(NC(=O)c2cc(NC(=O)CCNC(=O)c3nc(NC(=O)CCCNC(=O)c4cc(NC(=O)c5nc(NC(=O)CCNC(=O)c6cc(NC(=O)c7nccn7C)cn6C)cn5C)cn4CCCCCCNC(=O)CCOCCOCCOCCOCCOCCOC)cn3C)cn2C)cn1C [Compound B-238]	100 to 500 nM
CCN(CC)CCCC[C@H](NC(=O)c1cccc(C(=O)O)c1)C(=O)NCCOCCOCCOCCNC(=O)CCNC(=O)c1nc(NC(=O)c2cc(NC(=O)CCNC(=O)c3nc(NC(=O)CCCNC(=O)c4cc(NC(=O)c5nc(NC(=O)CCNC(=O)c6cc(NC(=O)c7nccn7C)cn6C)cn5C)cn4C)cn3C)cn2C)cn1C [Compound B-223]	> 1000 nM
CCCNC(=O)CCNC(=O)c1nc(NC(=O)c2cc(NC(=O)CCNC(=O)c3nc(NC(=O)CCCNC(=O)c4cc(NC(=O)c5nc(NC(=O)CCNC(=O)c6cc(NC(=O)c7nccn7C)cn6CCCCCCN=[N+]=[N-])cn5C)cn4C)cn3C)cn2C)cn1C [Compound B-60]	100 to 500 nM
CCCNC(=O)CCNC(=O)c1nc(NC(=O)c2cc(NC(=O)CCNC(=O)c3nc(NC(=O)CCCNC(=O)c4cc(NC(=O)c5nc(NC(=O)CCNC(=O)c6cc(NC(=O)c7nccn7C)cn6C)cn5C)cn4C)cn3C)cn2CCCCC(=O)N(CCOCCOCCOCCOC)CCOCCOCCOCCOC)cn1C [Compound B-159]	> 1000 nM
CN(C)CCCNC(=O)c1cc(NC(=O)CCNC(=O)c2nc(NC(=O)CCCNC(=O)c3cc(NC(=O)c4nc(NC(=O)CCNC(=O)c5cc(NC(=O)c6nccn6C)cn5C)cn4C)cn3CCCCCCN=[N+]=[N-])cn2C)cn1C [Compound B-254]	> 1000 nM
CCN(CC)CCCC[C@H](NC(=O)c1cccc(C(=O)OC(C)(C)C)c1)C(=O)NCCOCCOCCOCCOCCOCCNC(=O)c1nc(NC(=O)c2cc(NC(=O)CCNC(=O)c3nc(NC(=O)CCCNC(=O)c4cc(NC(=O)c5nc(NC(=O)CCNC(=O)c6cc(NC(=O)c7nccn7C)cn6C)cn5C)cn4C)cn3C)cn2C)cn1C [Compound B-344]	500 to 1000 nM
CC(=O)N1CCC(NC(=O)CCNC(=O)c2nc(NC(=O)c3cc(NC(=O)CCNC(=O)c4nc(NC(=O)CCCNC(=O)c5cc(NC(=O)c6nc(NC(=O)CCNC(=O)c7cc(NC(=O)c8nccn8C)cn7C)cn6C)cn5C)cn4C)cn3C)cn2C)CC1 [Compound B-141]	> 1000 nM
Cn1cc(NC(=O)c2nc(NC(=O)CCNC(=O)c3cc(NC(=O)c4nccn4C)cn3C)cn2C)cc1C(=O)NCCCC(=O)Nc1cn(C)c(C(=O)NCCC(=O)Nc2cc(C(=O)Nc3cn(C)c(C(=O)NCCC(=O)N4CCN(C5CCN(c6ccc([N+](=O)[O-])cc6)CC5)CC4)n3)n(C)c2)n1 [Compound B-29, 1-Methyl-4-{1-methyl-4-[3-({1-methyl-4-[4-({1-methyl-4-[1-methyl-4-(3-{[1-methyl-4-(1-methylimidazole-2-amido)pyrrol-2-yl]formamido}propanamido)imidazole-2-amido]pyrrol-2-yl}formamido)butanamido]imidazol-2-yl}formamido)propanamido]pyrrole-2-amido}-N-(3-{4-[1-(4-nitrophenyl)piperidin-4-yl]piperazin-1-yl}-3-oxopropyl)imidazole-2-carboxamide]	> 1000 nM
Cn1cc(NC(=O)c2nc(NC(=O)CCNC(=O)c3cc(NC(=O)c4nccn4C)cn3C)cn2C)cc1C(=O)NCCCC(=O)Nc1cn(C)c(C(=O)NCCC(=O)Nc2cc(C(=O)Nc3cn(C)c(C(=O)N4CCC(N5CCNCC5)CC4)n3)n(C)c2)n1 [Compound B-106]	> 1000 nM
CN(C)CCCCCNC(=O)CCNC(=O)c1nc(NC(=O)c2cc(NC(=O)CCNC(=O)c3nc(NC(=O)CCCNC(=O)c4cc(NC(=O)c5nc(NC(=O)CCNC(=O)c6cc(NC(=O)c7nccn7C)cn6C)cn5C)cn4C)cn3C)cn2C)cn1C [Compound B-41]	100 to 500 nM
CCN(CC)CCCC[C@@H](NC(C)=O)C(=O)Nc1ccc(OCCOCCOCCOCCOCCOCCOCCNC(=O)CCNC(=O)c2nc(NC(=O)c3cc(NC(=O)CCNC(=O)c4nc(NC(=O)CCCNC(=O)c5cc(NC(=O)c6nc(NC(=O)CCNC(=O)c7cc(NC(=O)c8nccn8C)cn7C)cn6C)cn5C)cn4C)cn3C)cn2C)cc1 [Compound B-145]	500 to 1000 nM
CN1CCC(CN2CCN(C(=O)CCNC(=O)c3nc(NC(=O)c4cc(NC(=O)CCNC(=O)c5nc(NC(=O)CCCNC(=O)c6cc(NC(=O)c7nc(NC(=O)CCNC(=O)c8cc(NC(=O)c9nccn9C)cn8C)cn7C)cn6C)cn5C)cn4C)cn3C)CC2)CC1 [Compound B-116]	> 1000 nM
Cn1cc(NC(=O)c2nc(NC(=O)CCNC(=O)c3cc(NC(=O)c4nccn4C)cn3C)cn2C)cc1C(=O)NCCCC(=O)Nc1cn(C)c(C(=O)NCCC(=O)Nc2cc(C(=O)Nc3cn(C)c(C(=O)NCCC(=O)NCC#CC#CC4CCN(C(=O)OC(C)(C)C)CC4)n3)n(C)c2)n1 [Compound B-194]	> 1000 nM
CC(=O)NCCCCCCn1cc(NC(=O)c2nc(NC(=O)CCNC(=O)c3cc(NC(=O)c4nccn4C)cn3C)cn2C)cc1C(=O)NCCCC(=O)Nc1cn(C)c(C(=O)NCCC(=O)Nc2cc(C(=O)Nc3cn(C)c(C(=O)NCCC(=O)N4CCC(C#CC#CC5CCNCC5)CC4)n3)n(C)c2)n1 [Compound B-294]	< 100 nM
CCN(CC)CCCC[C@H](NC(=O)c1ccccc1)C(=O)NCCOCCOCCOCCOCCOCCNC(=O)c1nc(NC(=O)c2cc(NC(=O)CCNC(=O)c3nc(NC(=O)CCCNC(=O)c4cc(NC(=O)c5nc(NC(=O)CCNC(=O)c6cc(NC(=O)c7nccn7C)cn6C)cn5C)cn4C)cn3C)cn2C)cn1C [Compound B-219]	500 to 1000 nM
Cn1cc(NC(=O)c2nc(NC(=O)CCNC(=O)c3cc(NC(=O)c4nccn4C)cn3C)cn2C)cc1C(=O)NCCCC(=O)Nc1cn(C)c(C(=O)NCCC(=O)Nc2cc(C(=O)Nc3cn(C)c(C(=O)NCCC(=O)NC4CCCCC4)n3)n(C)c2)n1 [Compound B-53]	100 to 500 nM
Cn1cc(NC(=O)c2nc(NC(=O)CCNC(=O)c3cc(NC(=O)c4nccn4C)cn3C)cn2C)cc1C(=O)NCCCC(=O)Nc1cn(C)c(C(=O)NCCC(=O)Nc2cc(C(=O)Nc3cn(C)c(C(=O)N4CC(c5cnc(CNC(=O)OCc6ccccc6)[nH]5)C4)n3)n(C)c2)n1 [Compound B-201]	> 1000 nM
Cn1cc(NC(=O)c2nc(NC(=O)CCNC(=O)c3cc(NC(=O)c4nccn4C)cn3C)cn2C)cc1C(=O)NCCCC(=O)Nc1cn(C)c(C(=O)NCCC(=O)Nc2cc(C(=O)Nc3cn(C)c(C(=O)NCCC(=O)N4CCC(CC5CC[N+](C)(C)CC5)CC4)n3)n(C)c2)n1 [Compound B-262]	> 1000 nM
Cn1cc(NC(=O)c2nc(NC(=O)CCNC(=O)c3cc(NC(=O)c4nccn4C)cn3C)cn2C)cc1C(=O)NCCCC(=O)Nc1cn(C)c(C(=O)NCCC(=O)Nc2cc(C(=O)Nc3cn(C)c(C(=O)NCCCCCCCNC(=O)c4cccc(C(=O)O)c4)n3)n(C)c2)n1 [Compound B-213]	> 1000 nM
CCOC(=O)CCNC(=O)c1nc(NC(=O)c2cc(NC(=O)CCNC(=O)c3nc(NC(=O)CCCNC(=O)c4cc(NC(=O)c5nc(NC(=O)CCNC(=O)c6cc(NC(=O)c7nccn7C)cn6C)cn5C)cn4C)cn3C)cn2C)cn1C [Compound B-65]	100 to 500 nM
Cn1cc(NC(=O)c2nc(NC(=O)CCNC(=O)c3cc(NC(=O)c4nccn4C)cn3C)cn2C)cc1C(=O)NCCCC(=O)Nc1cn(C)c(C(=O)NCCC(=O)Nc2cc(C(=O)Nc3cn(C)c(C(=O)NCCC(=O)N4CCC(O)(C#CC5CCNCC5)CC4)n3)n(C)c2)n1 [Compound B-196]	> 1000 nM
CCN(CC)CCCC[C@@H](NC(C)=O)C(=O)NCCNC(=O)CCNC(=O)c1nc(NC(=O)CCNC(=O)c2cc(NC(=O)c3nc(NC(=O)CCCNC(=O)c4cc(NC(=O)c5nc(NC(=O)CCNC(=O)c6cc(NC(C)c7nccn7C)cn6C)cn5C)cn4C)cn3C)cn2C)cn1C (some centres unmarked) [Compound B-98]	> 1000 nM

Same assay, conditions: Homo sapiens, Fibroblast; DM1 patient fibroblasts, foci per nucleus, 48 h treatment; read-out: DM1 EC50, 48 h

Compound	EC50
CCn1cc(NC(=O)c2nc(NC(=O)CCNC(=O)c3cc(NC(=O)c4nccn4C)cn3C)cn2C)cc1C(=O)NCC1(CC(=O)Nc2cn(C)c(C(=O)NCCC(=O)Nc3cc(C(=O)Nc4cn(C)c(C(=O)NCCCCN(C)C)n4)n(C)c3)n2)CC1 [Compound B-436]	< 100 nM
CCCNC(=O)c1nc(NC(=O)c2cc(NC(=O)CCNC(=O)c3nc(NC(=O)CC4(CNC(=O)c5cc(NC(=O)c6nc(NC(=O)CCNC(=O)c7cc(NC(=O)c8nccn8CC(F)(F)F)cn7C)cn6C)cn5C)CNC4)cn3C)cn2C)cn1C [Compound B-440]	100 to 500 nM
